Earlier results in PMC4112557 (Bioconjugate Chemistry, 2014).
Where a SMILES comes first, the peptide text is derived from it.

Target: PSMA (Homo sapiens, UniProt Q04609)
Conditions: hydrolysis of NAAG in the amplex red assay

PSMA, sequence (Q04609 whole entry): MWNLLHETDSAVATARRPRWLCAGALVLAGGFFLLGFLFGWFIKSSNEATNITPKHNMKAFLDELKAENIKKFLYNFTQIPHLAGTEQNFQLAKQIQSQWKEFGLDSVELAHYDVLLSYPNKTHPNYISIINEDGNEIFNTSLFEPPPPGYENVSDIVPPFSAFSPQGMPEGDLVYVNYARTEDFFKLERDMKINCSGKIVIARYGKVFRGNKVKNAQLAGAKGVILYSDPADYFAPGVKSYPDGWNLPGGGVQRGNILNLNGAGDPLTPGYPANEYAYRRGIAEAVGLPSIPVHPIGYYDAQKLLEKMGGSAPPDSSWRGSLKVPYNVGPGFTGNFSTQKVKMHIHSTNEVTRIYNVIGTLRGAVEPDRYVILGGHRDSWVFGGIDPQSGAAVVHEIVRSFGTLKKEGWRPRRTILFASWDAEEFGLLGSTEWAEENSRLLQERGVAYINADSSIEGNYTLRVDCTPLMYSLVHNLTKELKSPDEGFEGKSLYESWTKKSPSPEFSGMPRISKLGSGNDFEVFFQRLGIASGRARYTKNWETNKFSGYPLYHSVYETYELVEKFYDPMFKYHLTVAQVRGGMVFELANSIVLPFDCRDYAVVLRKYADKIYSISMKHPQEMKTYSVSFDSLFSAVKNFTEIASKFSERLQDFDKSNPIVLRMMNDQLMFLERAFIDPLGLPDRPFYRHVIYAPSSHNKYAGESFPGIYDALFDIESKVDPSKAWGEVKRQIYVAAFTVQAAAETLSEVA

Q: Which Km does the source give for CC(=O)N[C@@H](CC(=O)O)C(=O)N[C@@H](CCC(=O)O)C(=O)O [NAAG, N-acetylaspartylglutamic acid] (Ac-Asp-Glu-OH) here?
A: Its Km is 1.15 µM.
